Source: PubChem BioAssay (NCI)
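48-hour exposure; five concentrations; linearly interpolated endpoints. The concentration for full growth arrest is given as TGI.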

Legend:
Test in all cases: NCI-60 cell line screen, 48 h
[1] = tested on: CAKI-1 renal
[2] = tested on: NCI-H23 lung
[3] = tested on: SW-620 colon
[4] = tested on: KM12 colon
[5] = tested on: HS 578T breast
[6] = tested on: OVCAR-4 ovarian
[7] = tested on: SF-539 CNS
[8] = tested on: RXF 393 renal
[9] = tested on: HOP-62 NSCLC
[10] = tested on: MDA-N
[11] = tested on: COLO 205 colon
[12] = tested on: T-47D breast
[13] = tested on: SNB-19 CNS
[14] = tested on: NCI/ADR-RES ovarian
[15] = tested on: EKVX NSCLC
[16] = tested on: ACHN renal
[17] = tested on: HCT-15 colon
[18] = tested on: OVCAR-3 ovarian
[19] = tested on: MDA-MB-231 breast
[20] = tested on: TK-10 renal

| Compound | TGI [1] | TGI [2] | TGI [3] | TGI [4] | TGI [5] | TGI [6] | TGI [7] | TGI [8] | TGI [9] | TGI [10] | TGI [11] | TGI [12] | TGI [13] | TGI [14] | TGI [15] | TGI [16] | TGI [17] | TGI [18] | TGI [19] | TGI [20] |
| --- | --- | --- | --- | --- | --- | --- | --- | --- | --- | --- | --- | --- | --- | --- | --- | --- | --- | --- | --- | --- |
| C1=NCCNCCNCCN=Cc2ccccc2OCc2cccc(n2)COc2ccccc21 | > 100 µM | > 100 µM | > 100 µM | > 100 µM | > 100 µM | > 100 µM | 82.3 µM | > 100 µM | > 100 µM | 45.3 µM | > 100 µM | > 100 µM | > 100 µM | 60.4 µM | > 100 µM | 83.4 µM | > 100 µM | > 100 µM | > 100 µM |  |
| C=CCNS(=O)(=O)c1ncnc2nc[nH]c12 | > 100 µM | > 100 µM | > 100 µM | > 100 µM | > 100 µM | > 100 µM |  | > 100 µM | > 100 µM | > 100 µM | > 100 µM | > 100 µM | > 100 µM | > 100 µM | > 100 µM | > 100 µM | > 100 µM | > 100 µM | > 100 µM | > 100 µM |
| Cc1ccc(/C=C2\Cc3cccc(C)c3C2=O)c(C(=O)O)c1 | 48.8 µM | > 100 µM | > 100 µM | > 100 µM | > 100 µM | 52.9 µM | > 100 µM | > 100 µM | > 100 µM | > 100 µM |  | > 100 µM | > 100 µM |  | > 100 µM | 88.1 µM | > 100 µM | > 100 µM | > 100 µM | > 100 µM |
| C[C@]12CC[C@H](O)CC1=CC[C@@H]1[C@@H]2CC[C@]2(C)C(=N/O)/C(=C/c3ccc([N+](=O)[O-])cc3)C[C@@H]12 | 32.9 µM | 25.6 µM | > 100 µM | 60.1 µM | 63.5 µM | > 100 µM | 19.3 µM | 15.6 µM | 21.1 µM | 28.4 µM | 15.7 µM | 30.5 µM | 22.4 µM | 25.9 µM | 7.37 µM | 15.1 µM | 29.8 µM | 5.06 µM |  |  |
| Cc1cc(C)nc(SCCc2cccc[n+]2C)n1 | > 100 µM | > 100 µM | > 100 µM | > 100 µM | > 100 µM | > 100 µM |  | > 100 µM | > 100 µM | > 100 µM | > 100 µM | > 100 µM | > 100 µM | > 100 µM | > 100 µM | > 100 µM | > 100 µM | > 100 µM | > 100 µM | > 100 µM |
| O=C(c1cc2c(c3ccccc13)NCCN=C2C(F)(F)F)C(F)(F)F | > 100 µM | > 100 µM | > 100 µM | > 100 µM | 40.6 µM | > 100 µM | 54.9 µM | > 100 µM | 53 µM | > 100 µM |  | > 100 µM |  | > 100 µM | > 100 µM | 68.3 µM | > 100 µM | 80.9 µM | 51.4 µM | 78 µM |
| O=c1[nH]c(-n2[nH]c3c(c2=O)CCCC3)nc(O)c1-c1ccccc1 | > 100 µM | > 100 µM | > 100 µM | > 100 µM | > 100 µM | > 100 µM |  | > 100 µM |  | > 100 µM | > 100 µM | > 100 µM | > 100 µM | > 100 µM | > 100 µM | > 100 µM | > 100 µM |  | > 100 µM | > 100 µM |
| CCC1C(=O)C(O)[C@H]2[C@@H]3C(O)CC4=CC(=O)CC[C@]4(C)[C@H]3CC[C@]12C (stereo not given in full) | > 50 µM | > 50 µM | > 50 µM | > 50 µM | > 50 µM |  | > 50 µM |  | > 50 µM | > 50 µM | > 50 µM | > 50 µM | > 50 µM | > 50 µM | > 50 µM | > 50 µM | > 50 µM | > 50 µM | > 50 µM | > 50 µM |
| CSc1nc(SC)c2ncn(C3CC(Oc4ccc(C)cc4)C(COc4ccc(C)cc4)O3)c2n1 (stereo not given) | > 100 µM | > 100 µM | > 100 µM | > 100 µM | > 100 µM | > 100 µM | > 100 µM |  | > 100 µM | > 100 µM | > 100 µM | > 100 µM | > 100 µM | > 100 µM | > 100 µM | > 100 µM | > 100 µM | > 100 µM | > 100 µM | > 100 µM |
| CCOP(=O)(OCC)[C@H]1OC(C)(C)O[C@@H]1CO | > 100 µM | > 100 µM | > 100 µM | > 100 µM | > 100 µM | > 100 µM | > 100 µM |  | > 100 µM | > 100 µM | > 100 µM | > 100 µM | > 100 µM | > 100 µM | > 100 µM | > 100 µM | > 100 µM | > 100 µM | > 100 µM | > 100 µM |
| Cc1ccc(C(=O)OCC(C)C)cc1N=NN(C)C | > 100 µM | > 100 µM | > 100 µM | > 100 µM | > 100 µM | > 100 µM | > 100 µM |  | > 100 µM | > 100 µM | > 100 µM | > 100 µM | > 100 µM | > 100 µM | > 100 µM | > 100 µM | > 100 µM | 90.6 µM | > 100 µM | > 100 µM |
| CC(=O)O[C@H]1CCC2[C@@H]3CCC4Cc5nc6c(nc5C[C@]4(C)C3CC[C@@]21C)CC1CC[C@@H]2C(CC[C@@]3(C)C2CC[C@@H]3C(C)CCCC(C)C)[C@@]1(C)C6 (stereo not given in full) |  | > 100 µM | > 100 µM | > 100 µM | > 100 µM | > 100 µM | > 100 µM | > 100 µM | > 100 µM | > 100 µM | > 100 µM | > 100 µM | > 100 µM | > 100 µM | > 100 µM | > 100 µM | > 100 µM | > 100 µM | > 100 µM | > 100 µM |
| O=c1[nH]c(=O)n(C2CC(O)C(CO)O2)cc1OCC1CCCCC1 (stereo not given) | > 100 µM | > 100 µM |  | > 100 µM | > 100 µM | > 100 µM |  | > 100 µM | > 100 µM | > 100 µM | > 100 µM | > 100 µM | > 100 µM | > 100 µM | > 100 µM | > 100 µM | > 100 µM | > 100 µM | > 100 µM | > 100 µM |
